Measurements published in patent US20030229132A1, “Small molecule modulators of apoptosis” (priority 2002, published 2003).

Tested on: Jurkat cells
Test: Caspase-3 activation in Jurkat cells (immunoblot)
Assay type: cell-based, human
Settings: 50 μM compound or 1 μM staurosporin, 6 hr
Description: (C) DNA fragmentation analysis. […] Cell viability assay.
Compounds were then tested for their ability to induce apoptosis in live cells. The ability of the compounds to activate caspase-3 in a Jurkat cell line was first assayed. […] This same pattern was seen when we assayed for the cleavage of poly (ADP-ribose) polymerase (PARP), a cellular substrate of caspases-3 and -7 (see, D. W. Nicholson, Cell Death Differ 6, 1028-42 (1999)). Upon apoptosis, PAR-P is cleaved from a 116 kD to an 85 kD protein.

Compound	processing of procaspase-3
O=C(NCc1ccc(Cl)c(Cl)c1)OC1CCc2ccccc21 (stereo not drawn) [Compound 5]	significant processing
O=C(NCc1ccc(Cl)c(Cl)c1)OC1CCc2ccccc21 (stereo not drawn) [Compound 4]	less processing
O=C1C(=O)N(Cc2ccc(Cl)c(Cl)c2)c2ccccc21 [Compound 2]	significant processing
